Measurements from publication PMC7734281, “Functionalized Oxoindolin Hydrazine Carbothioamide Derivatives as Highly Potent Inhibitors of Nucleoside Triphosphate Diphosphohydrolases” (Frontiers in Pharmacology, 2020).

How the values were obtained:
h-NTPDase1 = molecular target: T1, h-NTPDase1 (Homo sapiens, UniProt P49961); parameters: method as in Lecka et al., 2013; conditions: selective inhibitor of h-NTPDase1; ref Lecka et al., 2013; cited from earlier work
T1 construct: made in house; host or cells: COS-7 cells, transient transfection; crude protein extract after sonication
T1 sequence (P49961 1-510): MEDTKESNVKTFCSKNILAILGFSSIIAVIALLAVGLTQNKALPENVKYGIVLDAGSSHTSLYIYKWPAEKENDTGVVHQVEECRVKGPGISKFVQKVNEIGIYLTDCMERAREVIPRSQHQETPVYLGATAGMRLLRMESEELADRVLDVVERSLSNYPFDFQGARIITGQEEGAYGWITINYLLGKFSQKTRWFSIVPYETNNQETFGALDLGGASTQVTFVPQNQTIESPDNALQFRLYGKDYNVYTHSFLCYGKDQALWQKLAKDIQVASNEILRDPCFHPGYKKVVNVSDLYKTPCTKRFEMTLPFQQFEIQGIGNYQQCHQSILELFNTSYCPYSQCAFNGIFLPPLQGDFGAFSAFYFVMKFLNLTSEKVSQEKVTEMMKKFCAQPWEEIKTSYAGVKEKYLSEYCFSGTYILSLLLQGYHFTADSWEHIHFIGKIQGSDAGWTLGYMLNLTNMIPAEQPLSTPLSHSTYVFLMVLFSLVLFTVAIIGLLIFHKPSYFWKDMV

mice pancreatic islets = experiment: Glucose stimulated insulin secretion in isolated mice islets (ELISA); assay type: cell-based, BALB/c mice; conditions: 16.7 mM glucose, compound 200 µM, 1 h, 37°C
Method: Six to eight week old BALB/c mice, weighing 30–40 g, were used in the study. These mice were obtained from the animal house of COMSATS University Islamabad, Abbottabad Campus and placed under standard temperature (25 ± 2°C) and humidity (50–55%) conditions with an alternate 12-h light/dark cycle. All the experimental animals were provided with a continuous supply of food and water. The animals were handled according to internationally accepted guidelines of animal care and use. Moreover, this study was reviewed and approved by Research Ethics Committee, Department of Pharmacy, COMSATS University Islamabad, Abbottabad Campus. (Protocol number: PHM.Eth./CS-M01-020-1609)
The islets were isolated from mice pancreas as previously described, by a process involving collagenase digestion ([Hameed et al., 2018]). Briefly, mice were anesthetized with sodium thiopental (30 mg kg) and sacrificed by cervical dislocation to block the flow of blood. Immediately, mice were transferred to biological hood and their abdominal cavity was opened completely by making an incision on abdomen. In order to stop the bile flow toward duodenum, ampulla was located and clamped under dissection microscope. Then, distention of pancreas was carried out by injecting 3 ml of collagenase solution (1 mg/ml) through common bile duct. The distended pancreas was removed as a whole, transferred to a 50 ml tube and digested in collagenase solution at 37°C. After 15 min, digestion was stopped by placing the tube on ice and 20 ml of Hank’s Balanced Salt Solution (HBSS) was added to it. Thus the digested islets were washed with HBSS (two to three times) by centrifugation (1,000 rpm) for 1 min at 4°C. Finally, islets were purified by passing through a cell strainer (70 µm) and isolated manually (by hand picking) under stereomicroscope (Euromex, Arnhem, Netherlands). All the purification and isolation procedures were carried out in HBSS, containing no magnesium, calcium and phenol red.
Krebs-Ringer bicarbonate buffer (KRBB) was used as an incubation medium for islets and was composed of NaCl (118 mM), KCl (4.7 mM), CaCl2 (1.9 mM), MgSO4 (1.2 mM), NaHCO3 (25 mM), 4-(2-hydroxyethyl)-1-piperazineethanesulfonic acid (HEPES, 10 mM) and bovine serum albumin (0.1%). The pH of KRBB was maintained at 7.4. The isolated islets were size-matched and pre-incubated (3 islets/tube) for 45 min at 37°C in KRBB, supplemented with 3 mM glucose. Thereafter, incubation medium was replaced with fresh KRBB (containing 16.7 mM glucose) and islets were incubated for 60 min at 37°C with or without test substance(s). After incubation, supernatant was collected and stored at −40°C until further use. Finally, collected samples were properly diluted and insulin secretion was estimated with ultra-sensitive mouse insulin ELISA kit (Crystal Chem Inc., Downers Grove, United States) according to the manufacturer’s instructions. The absorbance was measured at 450 nm and insulin secretion was normalized for number of islets used. ([Hameed et al., 2018]).

| SMILES | Ki (h-NTPDase1) [nM] | Effect on glucose stimulated insulin secretion (mice pancreatic islets) |
| --- | --- | --- |
| CCCCSc1nc2c(N)ncnc2n1[C@@H]1O[C@H](COP(=O)(O)OP(=O)(O)OP(=O)(O)O)[C@@H](O)[C@H]1O [8-Bus-ATP] | 800 ± 200 |  |
| O=C1Nc2ccccc2C1=O [isatin] |  | Neither suramin nor isatin had any significant effect |
